Results published in patent US20250235417A1, “Compositions for acute and chronic wounds” (DEBx Medical Holding B.V., priority 2021, published 2025).

Columns and labels:
patients' biofilm = experiment: Tests performed on patients' biofilm
[1] = estimated / in the order of; cited from earlier work
[2] = assay type: physicochemical
Excerpt: The pKa and the Ka values are based on literature references, which include: • E. P. Serjeant and B. Dempsey (eds.), Ionization Constants of Organic Acids in Solution, IUPAC Chemical Data Series No. 23, Pergamon Press, Oxford, UK, 1979; • Part of Journal of Research of the National Bureau of Standards. Volume 31, December 1943, pH VALUES OF ACID.SALT MIXTURES OF SOME AROMATIC SULFONIC ACIDS AT VARIOUS TEMPERATURES AND A CRITERION OF COMPLETENESS OF DISSOCIATION, By Walter j. Hamer. Gladys D. Pinching, and S. F. Acree; • Guthrie, J. P. Hydrolysis of esters of oxy acids: pKa values for strong acids. Can. J. Chem. 1978, 56, 2342-2354;

SMILES | antimicrobial activity (patients' biofilm) | acid dissociation constant, Ka [1] | acid form remaining undissociated upon contact with the biofilm [2]
Cc1cccc(S(=O)(=O)O)c1 [3-methylbenzenesulphonic acid] | considerable antimicrobial activity | ~600 | –
CCCCCCCCCCCCc1ccc(S(=O)(=O)O)cc1 [4-dodecylbenzenesulphonic acid] | – | 2-3 | about 57%
CCc1ccc(S(=O)(=O)O)cc1 [4-Ethylbenzenesulphonic acid] | considerable antimicrobial activity | ~600 | –
